Laboratory results taken from patent US20260258035A1, “FIVE-MEMBERED AND SIX-MEMBERED NITROGEN-CONTAINING COMPOUND, AND INTERMEDIATE, PREPARATION METHOD AND USE THEREOF” (HANGZHOU SYNRX THERAPEUTICS BIOMEDICAL TECHNOLOGY CO., LTD., priority 2022, published 2026).
Like-named read-outs stand apart in the source and are kept apart here.

What was measured:
HCC1806 = assay: Cell viability assay (CellTiter-Glo); type: cell-based, Human; conditions: HCC1806, 7 days, CellTiter-Glo, read-out: IC50 (nM) in cell viability assay
[1] = test system: Human breast squamous carcinoma cells HCC1806; assay: Cell function assay (In-Cell Western, PAR/pADPr after MMS); type: cell-based; conditions: read-out: IC50 (nM) in cell function assay
Summary of the method: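 HCC1806 cells adhered 24 h at 37 °C, 5% CO2, then were pretreated 1 h with compound (30000 nM down to 1 nM, plus 0 nM) or DMSO. MMS was then added at 0.5 mM final for 1 h before In-Cell Western detection of PAR/pADPr.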

PARG = PARG (Homo sapiens, UniProt Q86W56); assay: Biochemical assay (PARG, TFMU-ADPr substrate)
Sequence of PARG (Q86W56 whole entry): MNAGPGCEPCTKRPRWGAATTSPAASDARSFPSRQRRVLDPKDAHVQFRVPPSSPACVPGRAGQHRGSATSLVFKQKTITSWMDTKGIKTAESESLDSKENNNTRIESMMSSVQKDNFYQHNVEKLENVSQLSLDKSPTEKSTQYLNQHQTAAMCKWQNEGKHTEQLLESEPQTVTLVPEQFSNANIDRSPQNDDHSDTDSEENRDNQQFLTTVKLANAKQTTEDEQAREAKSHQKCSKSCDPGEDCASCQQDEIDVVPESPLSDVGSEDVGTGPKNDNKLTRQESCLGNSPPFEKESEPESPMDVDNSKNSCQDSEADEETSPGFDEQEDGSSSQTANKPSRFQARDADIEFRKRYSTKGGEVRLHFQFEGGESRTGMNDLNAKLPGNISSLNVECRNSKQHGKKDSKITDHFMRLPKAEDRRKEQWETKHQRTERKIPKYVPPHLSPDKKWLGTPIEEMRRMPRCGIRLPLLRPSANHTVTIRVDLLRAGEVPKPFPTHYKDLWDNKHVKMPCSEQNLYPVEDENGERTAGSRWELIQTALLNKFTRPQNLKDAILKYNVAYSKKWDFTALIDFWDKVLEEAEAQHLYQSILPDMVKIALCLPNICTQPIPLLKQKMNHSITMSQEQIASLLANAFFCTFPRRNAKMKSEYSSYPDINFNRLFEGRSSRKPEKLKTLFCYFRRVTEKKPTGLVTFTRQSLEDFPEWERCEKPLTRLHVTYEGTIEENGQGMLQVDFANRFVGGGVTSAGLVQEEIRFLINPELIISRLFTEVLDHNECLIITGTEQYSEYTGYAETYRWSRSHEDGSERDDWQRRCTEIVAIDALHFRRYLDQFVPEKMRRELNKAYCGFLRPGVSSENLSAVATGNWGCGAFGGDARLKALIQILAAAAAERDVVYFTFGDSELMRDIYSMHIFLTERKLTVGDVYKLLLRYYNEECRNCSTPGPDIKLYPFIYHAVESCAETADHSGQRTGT

[2] = HCC1806, In-Cell Western, MMS treatment
[3] = HCC1806, compound 1 h then 0.5 mM MMS 1 h, PAR/pADPr antibody, In-Cell Western
[4] = 4 nM PARG, 66.2 uM TFMU-ADPr, 3 min at room temperature

IC50 (HCC1806)	IC50 (HCC1806; Homo sapiens, HCC1806, 168 h)	IC50 [1, 2]	IC50 [1, 3]	IC50 (PARG; [4])	IC50 (PARG; PARG, TFMU-ADPr substrate)	Structure (SMILES)
866 nM	500 to 5000 nM	7.34 nM	< 100 nM	< 100 nM	7.59 nM	C[C@@H]1CN(c2cc(S(=O)(=O)NC3(C#N)CC3)cn3c(-c4nnc(C(F)F)s4)ncc23)C[C@H](C)N1C(=O)C1CC1 [Example 78, N-(1-cyanocyclopropyl)-8-((3R,5S)-4-(cyclopropanecarbonyl)-3,5-dimethylpiperazin-1-yl)-3-(5-(difluoromethyl)-1,3,4-thiadiazol-2-yl)imidazo[1,5-a]pyridine-6-sulfonamide]
916 nM	500 to 5000 nM	72.9 nM	< 100 nM	< 100 nM	0.37 nM	COC1(C)CCN(c2cc(S(=O)(=O)NC3(CF)CC3)cn3c(-c4nnc(C(F)F)s4)nnc23)CC1 [Example 111, 3-(5-(difluoromethyl)-1,3,4-thiadiazol-2-yl)-N-(1-(fluoromethyl)cyclopropyl)-8-(4-methoxy-4-methylpiperidin-1-yl)-[1,2,4]triazolo[4,3-a]pyridine-6-sulfonamide]
764 nM	500 to 5000 nM	7.57 nM	< 100 nM	< 100 nM	28.8 nM	C[C@@H]1CN(c2cc(S(=O)(=O)NC3(C#N)CC3)cn3c(-c4nnc(C(F)(F)F)s4)ncc23)CCN1C(=O)C1(C)CC1 [Example 80, (R)-N-(1-cyanocyclopropyl)-8-(3-methyl-4-(1-methylcyclopropane-1-carbonyl)piperazin-1-yl)-3-(5-(trifluoromethyl)-1,3,4-thiadiazol-2-yl)imidazo[1,5-a]pyridine-6-sulfonamide]
448 nM	< 500 nM	4.96 nM	< 100 nM	< 100 nM	1.99 nM	CC(C)C(=O)N1CCN(c2cc(S(=O)(=O)NC3(CF)CC3)cn3c(-c4nnc(C(F)F)s4)nnc23)CC1 [Example 100, 3-(5-(difluoromethyl)-1,3,4-thiadiazol-2-yl)-N-(1-(fluoromethyl)cyclopropyl)-8-(4-isobutyrylpiperazin-1-yl)-[1,2,4]triazolo[4,3-a]pyridine-6-sulfonamide]
472 nM	< 500 nM	6.85 nM	< 100 nM	< 100 nM	11 nM	C[C@@H]1CN(c2cc(S(=O)(=O)NC3(C#N)CC3)cn3c(-c4nnc(C(F)F)s4)ncc23)CCN1C(=O)C(C)(C)C [Example 84, (R)-N-(1-cyanocyclopropyl)-3-(5-(difluoromethyl)-1,3,4-thiadiazol-2-yl)-8-(3-methyl-4-pivaloylpiperazin-1-yl)imidazo[1,5-a]pyridine-6-sulfonamide]
370 nM	< 500 nM	3.78 nM	< 100 nM	< 100 nM	13.2 nM	C[C@@H]1CN(c2cc(S(=O)(=O)NC3(C#N)CC3)cn3c(-c4nnc(C(F)F)s4)ncc23)CCN1C(=O)C1CC1 [Example 75, (R)-N-(1-cyanocyclopropyl)-8-(4-(cyclopropanecarbonyl)-3-methylpiperazin-1-yl)-3-(5-(difluoromethyl)-1,3,4-thiadiazol-2-yl)imidazo[1,5-a]pyridine-6-sulfonamide]
584 nM	500 to 5000 nM	7.13 nM	< 100 nM	< 100 nM	9.12 nM	C[C@@H]1CN(c2cc(S(=O)(=O)NC3(C#N)CC3)cn3c(-c4nnc(C(F)F)s4)nc(Cl)c23)CCN1C(=O)C1(C)CC1 [Example 123, (R)-1-chloro-N-(1-cyanocyclopropyl)-3-(5-(difluoromethyl)-1,3,4-thiadiazol-2-yl)-8-(3-methyl-4-(1-methylcyclopropane-1-carbonyl)piperazin-1-yl)imidazo[1,5-a]pyridine-6-sulfonamide]
256 nM	< 500 nM	1.49 nM	< 100 nM	< 100 nM	8.71 nM	C[C@@H]1CN(c2cc(S(=O)(=O)NC3(C)CC3)cn3c(-c4nnc(C(F)F)s4)nnc23)CCN1C(=O)C1(C)CC1 [Example 117, (R)-3-(5-(difluoromethyl)-1,3,4-thiadiazol-2-yl)-8-(3-methyl-4-(1-methylcyclopropane-1-carbonyl)piperazin-1-yl)-N-(1-methylcyclopropyl)-[1,2,4]triazolo[4,3-a]pyridine-6-sulfonamide]
–	2670 nM	166 nM	–	< 100 nM	4.7 nM	CC(C)C(=O)N1CCN(c2cc(S(=O)(=O)NC3(CO)CC3)cn3c(-c4nnc(C(F)F)s4)ncc23)CC1 [Example 37, 3-(5-(difluoromethyl)-1,3,4-thiadiazol-2-yl)-N-(1-(hydroxymethyl)cyclopropyl)-8-(4-isobutyrylpiperazin-1-yl)imidazo[1,5-a]pyridine-6-sulfonamide]
450 nM	< 500 nM	3.59 nM	< 100 nM	< 100 nM	13.8 nM	CC1(C(=O)N2CCN(c3cc(S(=O)(=O)NC4(C#N)CC4)cn4c(-c5nnc(C(F)F)s5)ncc34)CC2)CC1 [Example 76, N-(1-cyanocyclopropyl)-3-(5-(difluoromethyl)-1,3,4-thiadiazol-2-yl)-8-(4-(1-methylcyclopropane-1-carbonyl)piperazin-1-yl)imidazo[1,5-a]pyridine-6-sulfonamide]
727 nM	500 to 5000 nM	39.1 nM	100 to 500 nM	< 100 nM	1.68 nM	[2H]c1nc(-c2nnc(C(F)F)s2)n2cc(S(=O)(=O)NC3(C)COC3)c(F)c(N3CCN(C(=O)C(C)C)CC3)c12 [Example 155, 3-(5-(difluoromethyl)-1,3,4-thiadiazol-2-yl)-7-fluoro-8-(4-isobutyrylpiperazin-1-yl)-N-(3-methyloxetan-3-yl)imidazo[1,5-a]pyridine-6-sulfonamide-1-d]
500 nM	< 500 nM	52.6 nM	< 100 nM	< 100 nM	2.46 nM	CC(C)C(=O)N1CC2(CC=C(c3nc(-c4nnc(C(F)F)s4)n4cc(S(=O)(=O)NC5(C#N)CC5)ccc34)C2)C1 [Example 24, N-(1-cyanocyclopropyl)-3-(5-(difluoromethyl)-1,3,4-thiadiazol-2-yl)-1-(2-isobutyryl-2-azaspiro[3.4]oct-6-en-6-yl)imidazo[1,5-a]pyridine-6-sulfonamide]
7730 nM	5000 to 30000 nM	70.4 nM	< 100 nM	< 100 nM	7.94 nM	CC(C)C(=O)N1CCN(c2cc(S(=O)(=O)NC3(C#N)CC3)cn3c(-c4nnc(CO)s4)ncc23)CC1 [Example 366, N-(1-cyanocyclopropyl)-3-(5-(hydroxymethyl)-1,3,4-thiadiazol-2-yl)-8-(4-isobutyrylpiperazin-1-yl)imidazo[1,5-a]pyridine-6-sulfonamide]
9380 nM	5000 to 30000 nM	26.5 nM	< 100 nM	< 100 nM	11.4 nM	CC(C)C(=O)N1CCN(c2cc(S(=O)(=O)NC34CC(C3)C4)cn3c(-c4nnc(C(F)F)s4)ncc23)CC1 [Example 54, N-(bicyclo[1.1.1]pentan-1-yl)-3-(5-(difluoromethyl)-1,3,4-thiadiazol-2-yl)-8-(4-isobutyrylpiperazin-1-yl)imidazo[1,5-a]pyridine-6-sulfonamide]
372 nM	< 500 nM	26.8 nM	< 100 nM	< 100 nM	6.51 nM	CC(C)C(=O)N1CCN(c2cc(S(=O)(=O)NC3(C)CC3)cn3c(-c4nnc(C(F)F)s4)nnc23)CC1 [Example 99, 3-(5-(difluoromethyl)-1,3,4-thiadiazol-2-yl)-8-(4-isobutyrylpiperazin-1-yl)-N-(1-methylcyclopropyl)-[1,2,4]triazolo[4,3-a]pyridine-6-sulfonamide]
520 nM	500 to 5000 nM	22.6 nM	< 100 nM	< 100 nM	1.5 nM	O=S(=O)(NC1(CF)CC1)c1cc(N2CCC(CO)CC2)c2nnc(-c3nnc(C(F)F)s3)n2c1 [Example 108, 3-(5-(difluoromethyl)-1,3,4-thiadiazol-2-yl)-N-(1-(fluoromethyl)cyclopropyl)-8-(4-(hydroxymethyl)piperidin-1-yl)-[1,2,4]triazolo[4,3-a]pyridine-6-sulfonamide]
738 nM	500 to 5000 nM	53.2 nM	100 to 500 nM	< 100 nM	3.66 nM	CC(C)C(=O)N1CCN(c2c(F)c(S(=O)(=O)NC3(C#N)CC3)cn3c(-c4nnc(C(F)F)s4)ncc23)CC1 [Example 52, N-(1-cyanocyclopropyl)-3-(5-(difluoromethyl)-1,3,4-thiadiazol-2-yl)-7-fluoro-8-(4-isobutyrylpiperazin-1-yl)imidazo[1,5-a]pyridine-6-sulfonamide]
500 nM	< 500 nM	9.15 nM	–	< 100 nM	2.4 nM	CC(C)C(=O)N1CC=C(c2cc(S(=O)(=O)NC3(C#N)CC3)cn3c(-c4nnc(C(F)F)s4)cnc23)CC1 [Example 12, N-(1-cyanocyclopropyl)-3-(5-(difluoromethyl)-1,3,4-thiadiazol-2-yl)-8-(1-isobutyryl-1,2,3,6-tetrahydropyridin-4-yl)imidazo[1,2-a]pyridine-6-sulfonamide]
